In US5972942A, “Inhibitors of farnesyl-protein transferase” (Merck & Co., Inc., priority 1997, dated 1999):
Structures can show the parent of a compound that is named as a salt.

Molecular target: T1, human FPTase (Homo sapiens, UniProt P49354+P49356)
T1 construct: made in house
Assay: In vitro inhibition of ras farnesyl transferase (human FPTase assay)
Format: biochemical
Settings: 100 nM Ras-CVIM, [3H]-farnesyl diphosphate, 30 min, read-out: IC50, inhibitory activity against human FPTase

T1 sequence (P49356 whole entry, one chain of several): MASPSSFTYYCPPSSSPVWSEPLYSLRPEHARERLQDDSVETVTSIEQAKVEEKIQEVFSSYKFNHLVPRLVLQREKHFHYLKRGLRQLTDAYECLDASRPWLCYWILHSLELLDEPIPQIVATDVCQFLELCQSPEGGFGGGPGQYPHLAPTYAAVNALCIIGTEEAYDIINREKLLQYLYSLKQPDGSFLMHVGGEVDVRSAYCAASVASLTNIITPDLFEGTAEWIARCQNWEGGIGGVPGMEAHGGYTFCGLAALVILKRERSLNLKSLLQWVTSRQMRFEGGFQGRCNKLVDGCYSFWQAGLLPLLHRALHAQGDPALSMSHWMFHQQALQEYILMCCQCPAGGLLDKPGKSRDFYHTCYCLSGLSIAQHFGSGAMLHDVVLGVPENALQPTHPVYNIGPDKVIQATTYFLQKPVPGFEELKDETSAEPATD

CCCC[C@H]1CN(CC(F)(F)F)C(=O)CN1Cc1cncn1Cc1ccc(C#N)cc1 [Example 1, 2(S)-n-Butyl-1-[1-(4-cyanobenzyl)-5-imidazolylmethyl]-4-(2,2,2-trifluoroethyl)piperazin-5-one dihydrochloride]
IC50: ≤ 50 µM
